Experiment in one series: not given
Broadly, the logP is a log measure of how a compound divides between an organic and an aqueous phase. Regarding `O=C(Nc1ncc([N+](=O)[O-])s1)c1c(F)cccc1Cl`, the logP came out at 3.

In the case of `O=C(Nc1ncc([N+](=O)[O-])s1)c1c(F)cccc1F`, the logP came to 2.44.

As to `O=C(Nc1ncc([N+](=O)[O-])s1)c1cc(Cl)ccc1Cl`, the logP turned out to be 3.57.

The molecule `O=C(Nc1ncc([N+](=O)[O-])s1)c1ccc(F)cc1` had a logP of 3.12.

On to `CC(=O)Oc1ccccc1C(=O)Nc1ncc([N+](=O)[O-])s1`, for which the logP was 2.41.

Molecule `O=C(Nc1ncc([N+](=O)[O-])s1)c1ccccc1F` displayed a logP of 2.71.

A short description of a further series: method code SF-AS, from DOI: 10.1002/(sici)1521-3838(199801)17:01<01::aid-qsar1>3.0.co;2-a.
The molecule `O=C(Nc1ncc([N+](=O)[O-])s1)c1cccc(Br)c1` yielded a logP of 3.8.

Turning to `O=C(Nc1ncc([N+](=O)[O-])s1)c1ccccc1Br`, the logP came out at 3.09.

For the molecule `O=C(Nc1ncc([N+](=O)[O-])s1)c1ccccc1`, the logP stood at 2.97.

Take `O=C(Nc1ncc([N+](=O)[O-])s1)c1cc(Cl)cc(Cl)c1`: the logP was 4.14.

In turn, `O=C(Nc1ncc([N+](=O)[O-])s1)c1ccc(Cl)cc1Cl` registered a logP of 3.62.

In turn, `O=C(Nc1ncc([N+](=O)[O-])s1)c1ccc(Cl)c(Cl)c1` had a logP of 4.14.

The molecule `O=C(Nc1ncc([N+](=O)[O-])s1)c1cc(Br)ccc1Br` had a logP of 3.75.

With `O=C(Nc1ncc([N+](=O)[O-])s1)c1ccc(Br)cc1`, the logP turned out to be 3.58.

`O=C(Nc1ncc([N+](=O)[O-])s1)c1cccc(Cl)c1` returned a logP of 3.61.
